Experimental findings from BindingDB's records for doi:10.7270/Q2MK6B9H (Nmmlsc, 2009) are described below.

pEC50: −log10 of the molar value.

Sequence of Ras-related protein Rab-7a (P18067 whole entry): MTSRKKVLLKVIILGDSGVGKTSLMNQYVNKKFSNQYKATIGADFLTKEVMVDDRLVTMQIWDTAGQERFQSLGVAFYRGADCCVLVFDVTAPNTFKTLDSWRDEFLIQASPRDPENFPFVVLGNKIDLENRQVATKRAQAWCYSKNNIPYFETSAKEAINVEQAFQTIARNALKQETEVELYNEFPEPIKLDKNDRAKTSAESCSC

The first assay has as its target Ras-related protein Rab-7a (Canis lupus familiaris, UniProt P18067). Briefly: inhibition of fluorescent GTP loading on Rab7 – biochemical, dog Rab7, bead multiplex flow cytometry, Bodipy-FL-GTP, pyrazoline series, SAR follow-up (AID 2041).
Conditions: not given
Take `Cc1ccccc1N1N=C(c2ccccc2)CC1c1ccc(N(C)C)cc1` (configuration not stated) [N,N-dimethyl-4-[2-(2-methylphenyl)-5-phenyl-3,4-dihydropyrazol-3-yl]aniline]: the pEC50 is under 4.52.

As to `COc1ccc(C2CC(c3ccccc3)=NN2c2ccc(S(N)(=O)=O)cc2)cc1OC` (configuration not stated) [UNM-0000305823], the pEC50 was under 4.52.

`COc1ccc(C2CC(c3ccc(Br)cc3)=NN2c2ccccc2Cl)cc1` (configuration not stated) [UNM-0000305832] had a pEC50 of under 4.52.

As for `O=S(=O)(O)c1ccc(N2N=C(c3ccccc3)CC2c2ccccc2)cc1` (configuration not stated) [UNM-0000305834], the pEC50 is under 4.52.

As for `Cc1cccc(N2N=C(c3ccccc3)CC2c2ccccc2)c1` (configuration not stated) [UNM-0000305835], the pEC50 was under 4.52.

`O=[N+]([O-])c1ccc([N+]2=N[C-](c3ccccc3)CC2c2ccc(O)cc2)cc1` (configuration not stated) [UNM-0000305838] showed a pEC50 of under 4.52.

Consider `CN(C)c1ccc(C2CC(c3ccc(Br)cc3)=NN2c2ccccc2)cc1` (configuration not stated) [UNM-0000305846], for which the pEC50 was under 4.52.

On to `CN(C)c1ccc(C2CC(c3ccc(Cl)cc3)=NN2c2ccccc2)cc1` (configuration not stated) [UNM-0000305847], for which the pEC50 was under 4.52.

`COc1ccc(C2=NN(c3ccccc3)C(c3ccc(OC)c(OC)c3C(=O)O)C2)cc1` (configuration not stated) [UNM-0000305848]: the pEC50 is under 4.52.

Molecule `Cc1ccccc1[N+]1=N[C-](c2ccccc2)CC1c1cccc([N+](=O)[O-])c1` (configuration not stated) [UNM-0000305854] gave a pEC50 of under 4.52.

Molecule `COc1ccccc1N1N=C(c2ccccc2)CC1c1ccccc1` (configuration not stated) [UNM-0000305855] had a pEC50 of 4.99.

The molecule `O=[N+]([O-])c1cccc(C2C[C-](c3ccccc3)N=[N+]2c2ccccc2)c1` (configuration not stated) [UNM-0000305857] had a pEC50 of under 4.52.

In turn, `COc1ccc(C2CC(c3ccc(Cl)cc3)=NN2c2ccccc2)cc1OC` (configuration not stated) [UNM-0000305858] had a negative logarithm of the EC50 (pEC50) of under 4.52.

In the case of `FC(F)(F)c1cccc(N2N=C(c3ccc(Cl)cc3)CC2c2ccccc2Cl)c1` (configuration not stated) [UNM-0000305859], the pEC50 is under 4.52.

For the molecule `COc1ccc(C2=NN(c3ccccc3F)C(c3ccc(F)cc3)C2)cc1` (configuration not stated) [UNM-0000305860], the pEC50 is under 4.52.

`COc1ccc(C2=NN(c3ccc(Cl)cc3)C(c3ccccc3F)C2)cc1` (configuration not stated) [UNM-0000305863] showed a pEC50 of under 4.52.

`COc1ccc(C2CC(c3ccc(F)cc3)=NN2c2ccccc2)cc1OC` (configuration not stated) [UNM-0000305864] showed a negative-log EC50 (pEC50) of under 4.52.

For the molecule `CN(C)c1ccc(C2CC(c3ccc(F)cc3)=NN2c2ccccc2)cc1` (configuration not stated) [UNM-0000305866], the pEC50 is under 4.52.

In turn, `COc1ccc(C2CC(c3ccccc3)=NN2c2ccc(C(N)=O)cc2)cc1` (configuration not stated) [UNM-0000305870] gave a pEC50 of under 4.52.

In turn, `COc1ccc(C2CC(c3ccccc3)=NN2c2ccc(C(=O)O)cc2)cc1` (configuration not stated) [UNM-0000306085] showed a pEC50 of under 4.52.

Take `COc1ccc(C2CC(c3ccccc3F)=NN2c2ccc(S(N)(=O)=O)cc2)cc1` (configuration not stated) [UNM-0000306110]: the pEC50 was under 4.52.

In the case of `COc1ccc(C2CC(c3ccccc3Br)=NN2c2ccc(S(N)(=O)=O)cc2)cc1` (configuration not stated) [UNM-0000306112], the pEC50 was under 4.52.

For the molecule `COc1ccc(C2CC(c3cccc(Br)c3)=NN2c2ccc(S(N)(=O)=O)cc2)cc1` (configuration not stated) [UNM-0000306113], the pEC50 is under 4.52.

The molecule `COc1ccc(C2CC(c3ccc(Br)cc3)=NN2c2ccc(S(N)(=O)=O)cc2)cc1` (configuration not stated) [UNM-0000306138] had a pEC50 of under 4.52.

As to `NS(=O)(=O)c1ccc(N2N=C(c3ccccc3)CC2c2cccc(Br)c2)cc1` (configuration not stated) [UNM-0000306147], the pEC50 is under 4.52.

For the molecule `Cc1ccccc1C1CC(c2ccccc2)=NN1c1ccc(S(N)(=O)=O)cc1` (configuration not stated) [UNM-0000306148], the pEC50 was under 4.52.

For the molecule `COc1ccc(C2CC(c3ccccc3C)=NN2c2ccc(S(N)(=O)=O)cc2)cc1` (configuration not stated) [UNM-0000306152], the pEC50 is under 4.52.

Consider `COc1ccc(C2CC(c3cccc(C)c3)=NN2c2ccc(S(N)(=O)=O)cc2)cc1` (configuration not stated) [UNM-0000306153], for which the pEC50 is under 4.52.

Molecule `NS(=O)(=O)c1ccc(N2N=C(c3ccccc3)CC2c2ccc(Br)cc2)cc1` (configuration not stated) [UNM-0000306160] had a pEC50 of under 4.52.

For the molecule `NS(=O)(=O)c1ccc(N2N=C(c3ccccc3)CC2c2cccc(Cl)c2)cc1` (configuration not stated) [UNM-0000306161], the pEC50 is under 4.52.

Staying with this assay, now noted: inactive by the depositor's call.
The molecule `COc1ccc(C2=NN(c3ccccc3)C(c3ccc(Cl)cc3)C2)cc1` (configuration not stated) [UNM-0000305833] had a pEC50 of 6.17.

`COc1ccc(C2CC(c3cccc(Cl)c3)=NN2c2ccc(S(N)(=O)=O)cc2)cc1` (configuration not stated) [UNM-0000306134] showed a pEC50 of 6.85.
